The term inhibition denotes the percentage by which the read-out fell short of the control. The melting point is the temperature, or range, at which the solid turns liquid.

In data set [1] the test system is IL-1β induced PGE2 production in human amnionic WISH cells. The experiment in a line: IL-1β Induced PGE2 Production in WISH Cells. Type of data set: cell-based. Conditions: IL-1β 18 hour. Here is the method: (§1) EIA reagents for prostaglandin determination were purchased from Perseptive Diagnostics, (Cambridge, Mass.). Prostaglandin E2 (PGE2) levels in lavage fluids were determined after the samples were dried under nitrogen and reconstituted with assay buffer. PGE2 levels in enzyme assays or cell culture media were measured against standards prepared in the same milieu. The immunoassays were conducted as recommended by the manufacturer. The EIA was conducted in 96 well microtiter plates (Nunc Roskilde, Denmark) and optical density was measured using a microplate reader (Vmax, Molecular Devices Corp., Menlo Park, Calif.).
Human amnionic WISH cells were grown to 80% confluence in 48 well plates. Following removal of the growth medium and two washings with Gey's Balanced Salt Solution, 5 ng IL-1β/ml (UBI, Lake Placid, N.Y.) was added to the cells with or without test compound in DMSO (0.01% v/v) in Neuman-Tytell Serumless Medium (GIBCO, Grand Island, N.Y.). Following an 18 hour incubation to allow for the maximal induction of PGHS-2, the conditioned medium was removed and assayed for PGE2 content by EIA anylysis as described above.
WISH cell values indicate percent inhibition at the particular dose level.

The target of data set [2] is T1, recombinant human Cox-1 (r-hu Cox-1, PGHS-1) (Homo sapiens, UniProt P23219).
T1 construct: made in house; host or cells: baculovirus/Sf9 insect cells (microsomes)
The experiment in a line: Recombinant human PGHS-1 (r-hu Cox-1) enzyme assay, PGE2 by EIA. The settings on record: at 100 μM; read-out: r-hu COX1 percent inhibition. Type of data set: biochemical. Here is the method: (§2) To compare the mean responses of the treatment groups, analysis of variance was applied. Percent inhibition values were determined by comparing the individual treatment mean values to the mean of the control group. Linear regression was used to estimate IC50's/ED50's in appropriate assays.
as §1
(§3) Inhibition of prostaglandin biosynthesis in vitro was evaluated using recombinant human Cox-1 (r-hu Cox-1) and Cox-2 (r-hu Cox-2) enzyme assays. […] The reaction was allowed to run for 2.5 minutes at room temperature prior to quenching with HCl and neutralization with NaOH. PGE2 production in the presence and absence of the drug was determined by EIA analysis. The EIA was conducted in 96 well microtiter plates (Nunc Roskilde, Denmark) and optical density was measured using a microplate reader (Vmax, Molecular Devices Corp., Menlo Park, Calif.). EIA reagent for prostaglandin determination were purchased from Perseptive Diagnostics (Cambridge, Mass.). PGE2 levels were measured against standards prepared in the same milieu. The immunoassays were conducted as recommended by the manufacturer.
(§4) The compounds are designated by the Example Number. […] Values for Cox-2 inhibition that are parenthetical indicate IC50 values.

Data set [3] relates to prostaglandin biosynthesis in vivo. The experiment in a line: Rat Carrageenan Pleural Inflammation (CIP) Model. Conditions: 10 mg/kg oral, 30 minutes prior to intrapleural carrageenan, lavage four hours later. Here is the method:
For oral administration, test compounds were suspended on the day of use in 100% polyethyleneglycol (PEG 400) with a motorized homogenizer equipped with a Teflon-coated pestle (TRI-R Instrument, Jamaica, N.Y.).
as §2, §1
Pleural inflammation was induced in male adrenalectomized Sprague-Dawley rats following the method of Vinegar et al., Fed. Proc. 1976, 35, 2447-2456. […] Eicosanoids were determined by EIA as described above. […]

Data set [4] has as its target T2, recombinant human Cox-2 (r-hu Cox-2, PGHS-2) (Homo sapiens, UniProt P35354).
T2 construct: made in house; host or cells: baculovirus/Sf9 insect cells (microsomes)
T2 sequence (P35354 18-604): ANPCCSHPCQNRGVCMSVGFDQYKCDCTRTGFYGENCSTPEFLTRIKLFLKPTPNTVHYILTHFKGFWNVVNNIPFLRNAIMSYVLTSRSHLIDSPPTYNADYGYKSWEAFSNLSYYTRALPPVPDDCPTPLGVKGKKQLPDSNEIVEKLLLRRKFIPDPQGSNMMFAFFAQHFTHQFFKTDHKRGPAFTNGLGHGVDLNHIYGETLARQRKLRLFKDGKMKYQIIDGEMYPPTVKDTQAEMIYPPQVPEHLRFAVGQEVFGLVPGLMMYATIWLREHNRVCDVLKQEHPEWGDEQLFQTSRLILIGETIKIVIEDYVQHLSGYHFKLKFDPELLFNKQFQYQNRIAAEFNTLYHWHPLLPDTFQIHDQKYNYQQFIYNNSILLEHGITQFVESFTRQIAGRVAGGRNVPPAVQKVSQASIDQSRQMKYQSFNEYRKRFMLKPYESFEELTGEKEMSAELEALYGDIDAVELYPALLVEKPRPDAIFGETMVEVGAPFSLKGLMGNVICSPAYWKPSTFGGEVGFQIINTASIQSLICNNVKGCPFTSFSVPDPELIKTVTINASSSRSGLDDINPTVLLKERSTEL
The data set is described as follows: Recombinant human PGHS-2 (r-hu Cox-2) enzyme assay, PGE2 by EIA. Type of data set: biochemical. The settings on record: read-out: r-hu COX2 percent inhibition. Here is the method: as §2, §1, §3, §4

T1 sequence (P23219 24-599): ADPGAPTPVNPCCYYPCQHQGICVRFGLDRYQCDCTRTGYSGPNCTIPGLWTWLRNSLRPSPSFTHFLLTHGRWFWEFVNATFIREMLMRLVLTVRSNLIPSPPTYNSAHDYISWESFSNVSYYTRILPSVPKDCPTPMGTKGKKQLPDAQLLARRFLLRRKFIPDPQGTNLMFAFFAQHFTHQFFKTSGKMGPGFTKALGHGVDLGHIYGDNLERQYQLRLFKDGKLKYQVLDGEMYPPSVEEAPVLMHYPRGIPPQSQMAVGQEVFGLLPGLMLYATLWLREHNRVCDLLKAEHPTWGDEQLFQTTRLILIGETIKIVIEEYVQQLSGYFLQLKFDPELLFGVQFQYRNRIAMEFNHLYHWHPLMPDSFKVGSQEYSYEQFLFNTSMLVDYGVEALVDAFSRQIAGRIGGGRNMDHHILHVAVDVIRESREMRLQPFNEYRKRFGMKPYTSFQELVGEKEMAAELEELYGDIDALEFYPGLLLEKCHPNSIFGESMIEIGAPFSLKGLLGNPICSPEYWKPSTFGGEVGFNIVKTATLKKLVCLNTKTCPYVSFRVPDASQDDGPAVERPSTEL

Consider “1-(4-Fluorophenyl)-2-{[4-(4-fluorophenyl)-1-methyl-5-(4-(methylsulphonyl)phenyl)-1H-pyrazol-3-yl]oxy}ethan-1-one and; 1-(4-Fluorophenyl)-2-{[4-(4-fluorophenyl)-1-methyl-3-(4-(methylsulphonyl)phenyl)-1H-pyrazol-5-yl]oxy}ethan-1-one [Example 35]”, for which the values for the WISH percent inhibition in data set [1] (at 0.01 (nM)) and in data set [1] (at 0.1 (nM)) were 38 @ 0.01% and 95 @ 0.1%, respectively.
In the case of `CS(=O)(=O)c1ccc(-c2c(-c3ccc(F)cc3)c(OCC(=O)c3ccccc3)nn2CC(=O)c2ccccc2)cc1` [Example 12, 2-[4-(4-Fluorophenyl)-5-(4-(methylsulphonyl)phenyl)-3-(2-oxo-2-phenylethoxy)-1H-pyrazol-1-yl]-1-phenylethan-1-one], the melting point lay within 151 to 152 °C. Also, the inhibition at 100 µM in data set [2] worked out at 0%. The “CIP Inh @ 10 mpk” value in data set [3] was found to be 38%.
`CS(=O)(=O)c1ccc(-c2c(-c3ccc(F)cc3)c(OCC(=O)c3ccc(F)cc3)nn2CC(=O)c2ccc(F)cc2)cc1` [Example 13, 2-[4-(4-Fluorophenyl)-5-(4-(methylsulphonyl)phenyl)-3-(2-oxo-2-(4-fluorophenyl)ethoxy)-1H-pyrazol-1-yl]-1-(4-fluorophenyl)ethan-1-one] gave a melting point of 194 to 196 °C. Moreover, in data set [2], the inhibition at 100 µM turned out to be 17%. The inhibition at 0.1 µM in data set [4] (at 100 nM) was 90%. In addition, the “CIP Inh @ 10 mpk” value in data set [3] is recorded as 22%.
Consider `CCn1nc(OC2COCCC2=O)c(-c2ccc(F)cc2)c1-c1ccc(S(C)(=O)=O)cc1` (centres unmarked) [Example 23, 3-[(1-Ethyl-4-(4-fluorophenyl)-5-(4-(methylsulphonyl)phenyl)-1H-pyrazol-3-yl)oxy]tetrahydro-4H-pyran-4-one], for which the melting point lay in the range of 181 to 182 °C. Moreover, the inhibition at 100 µM in data set [2] turned out to be 27%. Also, the inhibition at 10 µM in data set [4] (at 10000 nM) amounted to 43%. For the same compound, the inhibition at 0.001 µM in data set [1] (Homo sapiens, at 1 (nM), read-out: WISH percent inhibition) was found to be 80%.
In the case of `CC(C)(C)C(=O)COc1nn(CC=C(Cl)Cl)c(-c2ccc(S(C)(=O)=O)cc2)c1-c1ccc(F)cc1` [Example 26, 1-{[1-(3,3-Dichloroallyl)-4-(4-fluorophenyl)-5-(4-(methylsulphonyl)phenyl)-1H-pyrazol-3-yl]oxy}-3,3-dimethylbutan-2-one], the melting point lay in the range of 156 to 158 °C. Moreover, in data set [1] (Homo sapiens, at 0.1 (nM), read-out: WISH percent inhibition), the inhibition at 0.0001 µM worked out at 64%.
In the case of `CC(=O)n1nc(OCC(=O)C(C)(C)C)c(-c2ccccc2)c1-c1ccc(S(C)(=O)=O)cc1` [Example 32, 1-[(1-Acetyl-5-(4-(methylsulphonyl)phenyl)-4-phenyl-1H-pyrazol-3-yl)oxy]-3,3-dimethylbutan-2-one], the melting point fell in the range of 189 to 191 °C. In data set [1] (Homo sapiens, at 0.01 (nM), read-out: WISH percent inhibition), the inhibition at 10 pM worked out at 47%.
`CCn1nc(OCC(=O)C(C)(C)C)c(-c2ccccc2)c1-c1ccc(S(C)(=O)=O)cc1` [Example 33, 1-[(1-Ethyl-5-(4-(methylsulphonyl)phenyl)-4-phenyl-1H-pyrazol-3-yl)oxy]-3,3-dimethylbutan-2-one]: the melting point is 158 to 161 °C. The inhibition at 1 pM in data set [1] (Homo sapiens, at 0.001 (nM), read-out: WISH percent inhibition) worked out at 78%.
Regarding `CCC(=O)COc1nn(CC(=O)CC)c(-c2ccc(S(C)(=O)=O)cc2)c1-c1ccc(F)cc1` [Example 34], the WISH percent inhibition in data set [1] (at 1 (nM)) is on record as 62 @ 1%.

The record behind these values is patent publication US6472416B1, “Sulfonylphenylpyrazole compounds useful as COX-2 inhibitors” (Abbott Laboratories, priority 1999, dated 2002).
